This assay concerns the target HPK1 (Homo sapiens (Human), UniProt Q92918). The assay can be described thus: HPK1 biochemical enzyme assay (microfluidic mobility shift assay). The settings on record: 1.5 nM HPK1, ATP 1 mM final, 30 min preincubation, 60 min at RT, Caliper EZ Reader; read-out: HPK1 1000UMATP caliper IC50. Put shortly: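 Ten-point compound titrations (top 3 μM final) preincubated 30 min with HPK1 and substrate, then reaction started with 1 mM ATP and 1 μM substrate, 5 mM MgCl2. After 60 min at RT, reaction terminated and product measured by microfluidic mobility shift.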
HPK1, sequence (Q92918 whole entry): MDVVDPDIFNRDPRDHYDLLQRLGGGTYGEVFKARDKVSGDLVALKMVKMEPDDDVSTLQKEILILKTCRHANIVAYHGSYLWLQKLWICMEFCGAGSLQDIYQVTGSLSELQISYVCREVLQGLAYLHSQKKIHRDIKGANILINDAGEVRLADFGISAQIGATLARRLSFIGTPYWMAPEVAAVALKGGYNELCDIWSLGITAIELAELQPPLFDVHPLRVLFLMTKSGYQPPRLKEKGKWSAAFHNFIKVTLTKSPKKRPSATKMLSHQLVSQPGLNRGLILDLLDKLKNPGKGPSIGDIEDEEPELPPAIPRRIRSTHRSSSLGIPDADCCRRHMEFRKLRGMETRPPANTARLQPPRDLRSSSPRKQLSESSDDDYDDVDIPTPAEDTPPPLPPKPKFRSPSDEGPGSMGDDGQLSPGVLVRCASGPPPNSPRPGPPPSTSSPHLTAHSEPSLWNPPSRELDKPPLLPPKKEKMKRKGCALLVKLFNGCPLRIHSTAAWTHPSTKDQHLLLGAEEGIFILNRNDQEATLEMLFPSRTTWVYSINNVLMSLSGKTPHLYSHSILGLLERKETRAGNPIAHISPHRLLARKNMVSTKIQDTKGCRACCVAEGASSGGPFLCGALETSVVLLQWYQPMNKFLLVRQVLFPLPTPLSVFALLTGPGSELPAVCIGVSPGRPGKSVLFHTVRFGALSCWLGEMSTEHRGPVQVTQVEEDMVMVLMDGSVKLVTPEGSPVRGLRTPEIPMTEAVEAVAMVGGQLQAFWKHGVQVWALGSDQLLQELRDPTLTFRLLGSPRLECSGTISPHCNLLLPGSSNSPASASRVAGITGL
As for `Cc1cnc2c(ccn2C)c1-c1ccc(Nc2ccc(N3CCNCC3)cn2)c2c1CNC2=O` [I-99, 4-(l,5-dimethylpyrrolo [2,3-b]pyridin-4-yl)-7-[(5-piperazin-1-yl-2-pyridyl)amino] isoindolin-1-one], the IC50 lay in the range of 0.1 to 1 µM.
Then `CN[C@@H]1CCCN(c2ccc(Nc3ccc(-c4ccnc5c4ccn5C)c4c3C(=O)NC4)nc2)C1` [I-100, 7-[[5-[(3R)-3-(methviamino)-1-piperidyl]-2-pyridyl]amino]-4-(1-methylpyrrolo [2,3-b]pyridin-4-yl)isoindolin-1-one], with under 0.1 µM; and `O=C1NCc2c(-c3cnc4ccccn34)ccc(Nc3ccc(N4CC5CCC(C4)N5)cn3)c21` [I-101, 7-[[5-(3,8-diazabicyclo [3,2.1]octan-3-yl)-2-pyridyl]amino]-4-imidazo[1,2-a]pyridin-3-yl-isoindolin-1-one], with under 0.1 µM.
Then `Cn1ccc2c(-c3ccc(Nc4ccc(N5CCNCC5)cn4)c4c3CNC4=O)cccc21` [I-102, 4-(1-methylindol-4-yl)-7-[(5-piperazin-1-yl-2-pyridyl)amino] isoindolin-1-one], with under 0.1 µM; and `Cc1cc(-c2ccc(Nc3ccc(N4CCNCC4)cn3)c3c2CNC3=O)c2ccn(C)c2n1` [I-103, 4-(1,6-dimethylpyrrolo [2,3-b]pyridin-4-yl)-7-[(5-piperazin-1-yl-2-pyridyl)amino] isoindolin-1-one], with 0.1 to 1 µM.
Then `O=C1NCc2c(-c3cnc4ccccn34)ccc(Nc3ccc(N4CCCNCC4)cn3)c21` [I-104, 7-[[5-(l,4-diazepan-1-yl)-2-pyridyl]amino]-4-imidazo[1,2-a]pyridin-3-yl-isoindolin-1-one], with under 0.1 µM; and `CN1CCOc2c(-c3ccc(Nc4ccc(N5CCNCC5)cn4)c4c3CNC4=O)ccnc21` [I-105, 4-(4-methyl-2,3-dihydropyrido [3,2-b][1.4]oxazin-8-yl)-7-[(5-piperazin-1-yl-2-pyridyl)amino] isoindolin-1-one], with under 0.1 µM; and `Cn1ccc2c(-c3ccc(Nc4ccc(S(C)(=O)=O)cn4)c4c3CNC4=O)ccnc21` [I-106, 4-(1-methylpyrrolo [2,3-b]pyridin-4-yl)-7-[(5-methylsulfonyl-2-pyridyl)amino] isoindolin-1-one], with under 0.1 µM.
As to `O=C1NCc2c(-c3ccnc4ccsc34)ccc(Nc3ccc(N4CCNCC4)cn3)c21` [I-107, 7-[(5-piperazin-1-yl-2-pyridyl)amino]-4-thieno[3,2-b]pyridin-7-yl-isoindolin-1-one], the IC50 is under 0.1 µM.
Under `Cn1ccc2c(-c3ccc(Nc4ccc(C5CCOC5)cn4)c4c3CNC4=O)ccnc21` (centres unmarked) [I-108, 4-(1-methylpyrrolo [2,3-b]pyridin-4-yl)-7-[(5-THF-3-yl-2-pyridyl)amino] isoindolin-1-one] stands under 0.1 µM; under `CCNC(=O)c1ccc(Nc2ccc(-c3ccnc4c3ccn4C)c3c2C(=O)NC3)nc1` [I-109, N-ethyl-6-[[7-(1-methylpyrrolo [2,3-b]pyridin-4-yl)-3-oxo-isoindolin-4-yl]amino]pyridine-3-carboxamide], under 0.1 µM.
Then `Cn1ccc2c(-c3ccc(Nc4ccc(N5CCOCC5)cn4)c4c3CNC4=O)ccnc21` [I-110, 4-(1-methylpyrrolo [2,3-b]pyridin-4-yl)-7-[(5-morpholino-2-pyridyl)amino] isoindolin-1-one], with under 0.1 µM.
Under `Cc1cnc2c(-c3ccc(Nc4ccc(N5CCN(C)CC5)cn4)c4c3CNC4=O)cnn2c1` [I-111, 7-[[5-(4-methylpiperazin-1-yl)-2-pyridyl]amino]-4-(6-methylpyrazolo[1,5-a]pyrimidin-3-yl)isoindolin-1-one] stands under 0.1 µM; under `CN1CCN(c2ccc(Nc3ccc(-c4cnn5cccnc45)c4c3C(=O)NC4)nc2)CC1` [I-112, 7-[[5-(4-methylpiperazin-1-yl)-2-pyridyl]amino]-4-pyrazolo[1,5-a]pyrimidin-3-yl-isoindolin-1-one], under 0.1 µM.

For the origin of these results see US11021481B2, “Substituted isoindolin-1-ones and 2,3-dihydro-1h-pyrrolo[3,4-c]pyridin-1-ones as HPK1 antagonists” (Nimbus Saturn, Inc., priority 2019, dated 2021).
